This is an account of results in patent EP0641858A1, “SERUM CALCIUM DEPRESSING FACTOR” (Chugai Seiyaku Kabushiki Kaisha, priority 1991, dated 1992).

SMILES strings stand for the structures. Non-standard residues stand in square brackets, D forms with d. Residues, ends and D or L forms follow the SMILES beside them. *: point of attachment. Sta = CC(C)C[C@H](N)[C@@H](O)CC(=O)O; Isovaleryl = CC(C)CC(=O)*

Test [1] has as its target T1, serum calcium decreasing factor of pig origin (from porcine pancreas), N-terminal sequence SEQ ID NO: 1 (Sus scrofa, UniProt F1SUW2, E34Q/S46R).
T1 sequence (F1SUW2 30-268 E34Q/S46R): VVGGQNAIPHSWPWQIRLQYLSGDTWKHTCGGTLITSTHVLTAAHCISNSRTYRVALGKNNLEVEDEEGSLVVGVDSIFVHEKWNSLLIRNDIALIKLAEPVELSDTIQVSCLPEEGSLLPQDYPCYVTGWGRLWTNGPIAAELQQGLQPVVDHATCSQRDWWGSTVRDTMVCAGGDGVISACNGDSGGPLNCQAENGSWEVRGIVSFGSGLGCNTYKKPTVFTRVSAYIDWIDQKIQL
Briefly: Effect of protease inhibitors on protease activity (azo-casein substrate, OD at 340 nm). Format: biochemical. As to the method: In steps of the purification, since it was observed that a fragment which was assumed to be a degraded fragment of the serum calcium decreasing factor protein, was generated, it is assumed that this serum calcium decreasing factor has proteolytic activity. An effect of various protease inhibitors against the serum calcium decreasing factor protein of this invention was tested as follows: 1 mg/ml azo-casein was used as a substrate, incubation was conducted at temperature of 37°C for 30 min in 0.25 ml, 1 ml of 5% trichloroacetic acid was added thereto, and then the supernatant from centrifugation of the reaction products was measured for OD at 340 nm. The resulting value was used as proteolytic activity. The effect of each protease inhibitor is shown based upon a percentage where proteolytic activity of a control sample without the inhibitor is 100%.
The protease inhibitors used include phenylmethansulfonyl fluoride (PMSF), which is a serin-protease inhibitor; (4-amidinophenyl)-methanesulfonyl fluoride (APMSF), which is a trypsin-type serin-protease inhibitor; leupetin, which is a trypsin-type serin-protease-thiolprotease inhibitor; chymostatin, which is a chymotrypsin-type serinprotease inhibitor; N-[N-3-trans-carboxyoxirane-2-carbonyl)-L-leucyl]agmatine (E-64), which is a thiolprotease inhibitor; pepstatin, which is an acid protease inhibitor; trypsin inhibitors which are inhibitors of trypsin, Xa-factor, plasmin and plasmakallikrein; and aprotinin, which is an inhibitor of trypsin and kallikrein.

The nature of test [2]: Serum calcium lowering in mice, in vivo assay. To be noted: PMSF alone administered to mice (control of Fig. 5). As to the method:
Male BALB/c mice of 4 to 6 weeks old were starved for 18 hours and 0.1M Tris-HCl buffer (pH 7.5) or 0.1M Tris-HCl buffer containing each of the three peaks dissolved therein was administered through a mouse tail vein at a dose of 100 µl per 20g of the body weight. After 4 hours, blood was drawn from the heart under ether anesthesia and serum was obtained. The serum calcium concentration was measured according to the orth-cresol phthalein complexion method.
Next, lowering of serum calcium concentration by serum calcium decreasing factor in an in vivo assay on mice was tested using serum calcium decreasing factor treated with PMSF and non-treated serum calcium decreasing factor. In the figure, open circles show the result of non-treated serum calcium decreasing factor, closed circles show the result of serum calcium decreasing factor treated with PMSF, and closed boxes show the result (control) wherein PMSF alone was administrated in an amount provided when serum calcium decreasing factor was administrated in an amount shown on the absissa.

[3] abbreviates: inhibitor 100 µM, 1 mg/ml azo-casein, 37°C, 30 min, control without inhibitor = 100%, read-out: Activity of Protease (per Activity of Control%).

In the case of `N=C(N)c1ccc(CS(=O)(=O)F)cc1` [APMSF, (4-amidinophenyl)-methanesulfonyl fluoride], the “inhibition of protease activity (in words)” value (shortened to “inhibition”) in test [1] (inhibitor 50 µM) is given as “not being inhibited”. Besides, the “Activity of Protease (per Activity of Control%)” value in test [1] (inhibitor 50 µM, 1 mg/ml azo-casein, 37°C, 30 min, control without inhibitor = 100%) worked out at 107.0%.

For the compound `CC(C)C[C@H](NC(=O)[C@@H](NC(=O)N[C@@H](Cc1ccccc1)C(=O)O)[C@@H]1CCN=C(N)N1)C(=O)N[C@H](C=O)Cc1ccccc1` [Chymostatin], the “inhibition” value in test [1] (inhibitor 100 µM) was “inhibited”. Further, in test [1] (setting [3]), the remaining activity at 100 µM stood at 16.1%.

On to `CC(C)CC(NC(=O)C1OC1C(=O)O)C(=O)NCCCCN=C(N)N` [E-64, N-[N-3-trans-carboxyoxirane-2-carbonyl)-L-leucyl]agmatine], for which the “inhibition” value in test [1] (inhibitor 2.5 µg/ml) was “not being inhibited”. Also, the remaining activity at 2.5 µg/mL in test [1] (inhibitor 2.5 µg/ml, 1 mg/ml azo-casein, 37°C, 30 min, control without inhibitor = 100%, read-out: Activity of Protease (per Activity of Control%)) turned out to be 108%.

For the compound `CC(=O)N[C@@H](CC(C)C)C(=O)N[C@@H](CC(C)C)C(=O)N[C@H](C=O)CCCNC(=N)N` [Leupeptin], the “inhibition” value in test [1] (inhibitor 100 µM) was “partially inhibited”. Further, the remaining activity at 100 µM in test [1] (setting [3]) is 86.8%.

`O=S(=O)(F)Cc1ccccc1` [PMSF, phenylmethansulfonyl fluoride]: in test [1] (inhibitor 1 mM), the “inhibition” value is “inhibited”. In addition, in test [1] (inhibitor 1 mM, 1 mg/ml azo-casein, 37°C, 30 min, control without inhibitor = 100%), the “Activity of Protease (per Activity of Control%)” value was 8.8%. For the same compound, in test [2], the “lowering of serum calcium” value is “did not lower serum calcium”.

In the case of `CC(C)CC(=O)N[C@H](C(=O)N[C@H](C(=O)N[C@@H](CC(C)C)[C@@H](O)CC(=O)N[C@@H](C)C(=O)N[C@@H](CC(C)C)[C@@H](O)CC(=O)O)C(C)C)C(C)C` [Pepstatin] (Isovaleryl-VV[Sta]A[Sta]-OH), the “inhibition” value in test [1] (inhibitor 100 µM) is recorded as “partially inhibited”. In test [1] (setting [3]), the remaining activity at 100 µM amounted to 67.9%.
